Measured values: patent publication US20230263742A1, “A LIPID” (Stemirna Therapeutics Co., Ltd., priority 2021, published 2023)

Tests used:
[1] = Encapsulation efficiency (RIBOGREEN kit); assay type: physicochemical; settings: Luc mRNA-LNP 50:10:38.5:1.5
Description: For nanoparticle compositions including an RNA, a QUANT-IT™ RIBOGREENR®RNA assay (Invitrogen Corporation Carlsbad, Calif.) can be used to evaluate the encapsulation of an RNA by the nanoparticle composition. The samples were diluted to a concentration of approximately 5 μg/mL in a TE buffer solution (10 mM Tris-HCl, 1 mM EDTA, pH 7.5). 50 μL of the diluted samples are transferred to a polystyrene 96 well plate and either 50 μL of TE buffer or 50 μL of a 2% Triton X-100 solution is added to the wells. The plate is incubated at a temperature of 37° C. for 15 minutes. The RIBOGREENR reagent is diluted 1:100 in TE buffer and 100 μL of this solution is added to each well. The fluorescence intensity can be measured using a fluorescence plate reader (Wallac Victor 1420 Multilablel Counter; Perkin Elmer, Waltham, Mass.) at an excitation wavelength of, for example, about 480 nm and an emission wavelength of, for example, about 520 nm. The fluorescence values of the reagent blank are subtracted from that of each of the samples and the percentage of free RNA is determined by dividing the fluorescence intensity of the intact sample (without addition of Triton X-100) by the fluorescence value of the disrupted sample (caused by the addition of Triton X-100).
Encapsulation efficiency detection method: LNP content and encapsulation efficiency detection were carried out according to the RIBOGREEN kit.

[2] = Particle size, PDI and zeta potential by dynamic light scattering; assay type: physicochemical; settings: for PDI / Zeta potential: Luc mRNA-LNP 50:10:38.5:1.5; for Size: Luc mRNA-LNP, lipid:phospholipid:cholesterol:PEG-DMG 50:10:38.5:1.5
Description: A Zetasizer Nano ZS (Malvern Instruments Ltd, Malvern, Worcestershire, UK) can be used to determine the particle size, the polydispersity index (PDI) and the zeta (ζ) potential of the nanoparticle compositions in 1×PBS in determining particle size and 15 mM PBS in determining zeta (ζ) potential.
The evaluation method of particle size and zeta potential: 50 μL LNP sample was diluted with 950 μL purified water to obtain the diluted LNP sample. The sample was placed in a dynamic light scattering laser particle size analyzer (Malvern, ZS-90) for testing.

| SMILES | Encapsulation Efficiency (EE, %) ([1]; phospholipid DAPC) | Encapsulation Efficiency (EE, %) ([1]; phospholipid DMPE) | Encapsulation Efficiency (EE, %) ([1]; phospholipid DOPE) | Encapsulation Efficiency (EE, %) ([1]; phospholipid DPPC) | Encapsulation Efficiency (EE, %) ([1]; phospholipid DSPC) | PDI ([2]; phospholipid DAPC) | Zeta potential ([2]; phospholipid DAPC) | Size ([2]; phospholipid DAPC) | PDI ([2]; phospholipid DMPE) | Zeta potential ([2]; phospholipid DMPE) | Size ([2]; phospholipid DMPE) | PDI ([2]; phospholipid DOPE) | Zeta potential ([2]; phospholipid DOPE) | Size ([2]; phospholipid DOPE) | PDI ([2]; phospholipid DPPC) | Zeta potential ([2]; phospholipid DPPC) | Size ([2]; phospholipid DPPC) | PDI ([2]; phospholipid DPPE) | Zeta potential ([2]; phospholipid DPPE) | Size ([2]; phospholipid DPPE) | also measured |
| --- | --- | --- | --- | --- | --- | --- | --- | --- | --- | --- | --- | --- | --- | --- | --- | --- | --- | --- | --- | --- | --- |
| CCCCCCCCC(CCCCCCCC)OC(=O)CCCCCCCN(CCO)CCCCCCCC(=O)OCCc1ccc(CCCCCCC)cc1 [SW-II-121] | 76.6% | 70.9% | 81.5% | 86.7% | 86.0% | 0.27 ± 0.01 | −2.21 ± 0.53 mV | 96.3 ± 2.2 nm | 0.20 ± 0.03 | 0.01 ± 0.35 mV | 139.8 ± 1.1 nm | 0.17 ± 0.03 | 5.06 ± 0.15 mV | 159.87 ± 3.7 nm | 0.22 ± 0.02 | −1.23 ± 1.43 mV | 98.7 ± 1.7 nm | 0.17 ± 0.03 | −0.29 ± 0.31 mV | 98.4 ± 2.7 nm | Encapsulation Efficiency (EE, %) ([1]; phospholipid DPPE): 84.0%; Encapsulation Efficiency (EE, %) ([1]; phospholipid DSPE): 68.5%; PDI ([2]; phospholipid DSPC): 0.22 ± 0.03; Zeta potential ([2]; phospholipid DSPC): −1.18 ± 1.18 mV; Size ([2]; phospholipid DSPC): 98.5 ± 1.5 nm; PDI ([2]; phospholipid DSPE): 0.17 ± 0.03; Zeta potential ([2]; phospholipid DSPE): −9.60 ± 2.10 mV; Size ([2]; phospholipid DSPE): 116.3 ± 0.2 nm |
| CCCCCCCCC(CCCCCCCC)OC(=O)CCCCCCCN(CCO)CCCCCCCC(=O)OCCc1ccc(CCCCCC)cc1 [SW-II-120] | 84.3% | 86.2% | 90.9% | 84.9% | 85.3% | 0.28 ± 0.02 | −4.82 ± 0.28 mV | 97.1 ± 1.6 nm | 0.20 ± 0.02 | −6.08 ± 0.43 mV | 92.7 ± 1.1 nm | 0.13 ± 0.02 | 2.09 ± 0.28 mV | 142.9 ± 1.9 nm | 0.22 ± 0.01 | −3.23 ± 2.95 mV | 92.97 ± 0.7 nm | 0.15 ± 0.04 | −5.04 ± 1.16 mV | 115.3 ± 3.7 nm | Encapsulation Efficiency (EE, %) ([1]; phospholipid DPPE): 64.7%; PDI ([2]; phospholipid DSPC): 0.20 ± 0.01; Zeta potential ([2]; phospholipid DSPC): 0.61 ± 0.55 mV; Size ([2]; phospholipid DSPC): 88.7 ± 1.1 nm; PDI ([2]; phospholipid DSPE): 0.22 ± 0.02; Zeta potential ([2]; phospholipid DSPE): −5.15 ± 2.37 mV; Size ([2]; phospholipid DSPE): 106.5 ± 5.5 nm |
| CCCCCCCCC(CCCCCCCC)OC(=O)CCCCCCCN(CCO)CCCCCCCC(=O)OCCc1ccc(CCCC)cc1 [SW-II-118] | 86.4% | 86.2% | 87.5% | 83.4% | 76.0% | 0.28 ± 0.03 | −7.18 ± 0.42 mV | 93.8 ± 1.6 nm | 0.29 ± 0.01 | −1.59 ± 0.19 mV | 102.8 ± 2.3 nm | 0.10 ± 0.04 | −4.31 ± 1.36 mV | 111.3 ± 2.0 nm | 0.26 ± 0.06 | −2.32 ± 0.32 mV | 97.3 ± 2.6 nm | 0.54 ± 0.41 | −0.80 ± 0.58 mV | 265.7 ± 306.1 nm | Encapsulation Efficiency (EE, %) ([1]; phospholipid DSPE): 81.0%; PDI ([2]; phospholipid DSPC): 0.37 ± 0.02; Zeta potential ([2]; phospholipid DSPC): −1.65 ± 0.58 mV; Size ([2]; phospholipid DSPC): 108.7 ± 2.5 nm; PDI ([2]; phospholipid DSPE): 0.21 ± 0.01; Zeta potential ([2]; phospholipid DSPE): −11.97 ± 1.19 mV; Size ([2]; phospholipid DSPE): 103.4 ± 2.0 nm |
